Measured values: patent US12685735B2 (Foghorn Therapeutics Inc., priority 2020, dated 2026)

Tests used:
BRM = BRM (Homo sapiens, UniProt P51531); assay: ATPase catalytic activity assay of BRM (ADP-Glo); assay type: biochemical; conditions: for IC50: read-out: BRM IC50 (μM)*
How it was run: (§1)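 Measurement is luminescence, reflecting ADP produced by ATPase turnover. The two-step ADP-Glo detection consists of ATP depletion for 40 min and ADP-to-ATP conversion with luciferase for 60 min, both at room temperature.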

BRG-1 = BRG-1 (Homo sapiens, UniProt P51532); assay: ATPase catalytic activity assay of BRG-1 (ADP-Glo); assay type: biochemical; conditions: ATPase catalytic activity, ADP-Glo; for IC50: read-out: BRG1 IC50 (μM)*; for Emax: read-out: BRG1 Max % Inhibition
Chain of BRG-1 (P51532 whole entry): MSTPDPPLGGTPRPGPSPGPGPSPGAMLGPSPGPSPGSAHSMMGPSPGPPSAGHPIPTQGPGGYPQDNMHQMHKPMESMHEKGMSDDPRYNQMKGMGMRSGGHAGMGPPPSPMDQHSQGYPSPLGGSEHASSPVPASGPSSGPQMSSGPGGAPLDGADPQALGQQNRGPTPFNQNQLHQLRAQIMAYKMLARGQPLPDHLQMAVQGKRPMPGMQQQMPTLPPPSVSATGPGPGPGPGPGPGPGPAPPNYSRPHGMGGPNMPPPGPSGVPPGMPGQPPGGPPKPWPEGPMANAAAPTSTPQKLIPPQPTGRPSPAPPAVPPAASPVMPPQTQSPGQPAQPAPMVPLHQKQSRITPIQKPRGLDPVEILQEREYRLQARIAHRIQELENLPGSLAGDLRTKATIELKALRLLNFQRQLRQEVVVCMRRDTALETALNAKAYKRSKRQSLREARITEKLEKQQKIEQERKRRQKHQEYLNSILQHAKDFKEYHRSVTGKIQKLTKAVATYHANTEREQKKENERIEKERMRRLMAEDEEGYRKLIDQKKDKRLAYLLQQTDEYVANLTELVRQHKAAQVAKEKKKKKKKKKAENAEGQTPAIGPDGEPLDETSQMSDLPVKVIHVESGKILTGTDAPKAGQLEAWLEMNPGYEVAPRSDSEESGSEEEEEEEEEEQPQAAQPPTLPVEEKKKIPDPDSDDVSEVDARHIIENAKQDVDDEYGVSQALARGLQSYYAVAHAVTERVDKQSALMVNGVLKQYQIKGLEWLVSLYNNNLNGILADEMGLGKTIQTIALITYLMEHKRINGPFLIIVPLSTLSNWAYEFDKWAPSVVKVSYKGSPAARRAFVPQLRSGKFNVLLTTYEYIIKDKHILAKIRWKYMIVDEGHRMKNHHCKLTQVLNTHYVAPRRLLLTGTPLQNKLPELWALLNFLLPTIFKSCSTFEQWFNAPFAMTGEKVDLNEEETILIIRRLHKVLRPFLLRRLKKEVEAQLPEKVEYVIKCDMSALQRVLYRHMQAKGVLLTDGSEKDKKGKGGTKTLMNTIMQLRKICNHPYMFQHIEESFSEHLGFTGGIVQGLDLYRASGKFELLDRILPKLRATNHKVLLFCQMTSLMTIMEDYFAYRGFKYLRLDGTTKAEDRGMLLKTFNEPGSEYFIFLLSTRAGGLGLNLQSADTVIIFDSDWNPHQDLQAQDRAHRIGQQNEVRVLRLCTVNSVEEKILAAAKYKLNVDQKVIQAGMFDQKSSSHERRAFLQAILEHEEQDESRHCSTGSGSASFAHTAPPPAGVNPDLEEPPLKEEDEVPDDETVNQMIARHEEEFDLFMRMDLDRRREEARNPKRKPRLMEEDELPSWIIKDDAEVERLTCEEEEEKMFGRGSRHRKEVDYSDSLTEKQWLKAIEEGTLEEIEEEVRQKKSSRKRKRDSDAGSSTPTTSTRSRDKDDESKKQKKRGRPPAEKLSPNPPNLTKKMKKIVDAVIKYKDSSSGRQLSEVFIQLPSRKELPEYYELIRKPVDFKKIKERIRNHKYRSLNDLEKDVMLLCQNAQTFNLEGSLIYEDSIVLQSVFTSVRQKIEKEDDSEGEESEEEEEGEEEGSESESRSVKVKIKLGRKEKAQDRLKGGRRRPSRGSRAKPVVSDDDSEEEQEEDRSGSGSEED
How it was run: as §1

Chain of BRM (P51531 whole entry): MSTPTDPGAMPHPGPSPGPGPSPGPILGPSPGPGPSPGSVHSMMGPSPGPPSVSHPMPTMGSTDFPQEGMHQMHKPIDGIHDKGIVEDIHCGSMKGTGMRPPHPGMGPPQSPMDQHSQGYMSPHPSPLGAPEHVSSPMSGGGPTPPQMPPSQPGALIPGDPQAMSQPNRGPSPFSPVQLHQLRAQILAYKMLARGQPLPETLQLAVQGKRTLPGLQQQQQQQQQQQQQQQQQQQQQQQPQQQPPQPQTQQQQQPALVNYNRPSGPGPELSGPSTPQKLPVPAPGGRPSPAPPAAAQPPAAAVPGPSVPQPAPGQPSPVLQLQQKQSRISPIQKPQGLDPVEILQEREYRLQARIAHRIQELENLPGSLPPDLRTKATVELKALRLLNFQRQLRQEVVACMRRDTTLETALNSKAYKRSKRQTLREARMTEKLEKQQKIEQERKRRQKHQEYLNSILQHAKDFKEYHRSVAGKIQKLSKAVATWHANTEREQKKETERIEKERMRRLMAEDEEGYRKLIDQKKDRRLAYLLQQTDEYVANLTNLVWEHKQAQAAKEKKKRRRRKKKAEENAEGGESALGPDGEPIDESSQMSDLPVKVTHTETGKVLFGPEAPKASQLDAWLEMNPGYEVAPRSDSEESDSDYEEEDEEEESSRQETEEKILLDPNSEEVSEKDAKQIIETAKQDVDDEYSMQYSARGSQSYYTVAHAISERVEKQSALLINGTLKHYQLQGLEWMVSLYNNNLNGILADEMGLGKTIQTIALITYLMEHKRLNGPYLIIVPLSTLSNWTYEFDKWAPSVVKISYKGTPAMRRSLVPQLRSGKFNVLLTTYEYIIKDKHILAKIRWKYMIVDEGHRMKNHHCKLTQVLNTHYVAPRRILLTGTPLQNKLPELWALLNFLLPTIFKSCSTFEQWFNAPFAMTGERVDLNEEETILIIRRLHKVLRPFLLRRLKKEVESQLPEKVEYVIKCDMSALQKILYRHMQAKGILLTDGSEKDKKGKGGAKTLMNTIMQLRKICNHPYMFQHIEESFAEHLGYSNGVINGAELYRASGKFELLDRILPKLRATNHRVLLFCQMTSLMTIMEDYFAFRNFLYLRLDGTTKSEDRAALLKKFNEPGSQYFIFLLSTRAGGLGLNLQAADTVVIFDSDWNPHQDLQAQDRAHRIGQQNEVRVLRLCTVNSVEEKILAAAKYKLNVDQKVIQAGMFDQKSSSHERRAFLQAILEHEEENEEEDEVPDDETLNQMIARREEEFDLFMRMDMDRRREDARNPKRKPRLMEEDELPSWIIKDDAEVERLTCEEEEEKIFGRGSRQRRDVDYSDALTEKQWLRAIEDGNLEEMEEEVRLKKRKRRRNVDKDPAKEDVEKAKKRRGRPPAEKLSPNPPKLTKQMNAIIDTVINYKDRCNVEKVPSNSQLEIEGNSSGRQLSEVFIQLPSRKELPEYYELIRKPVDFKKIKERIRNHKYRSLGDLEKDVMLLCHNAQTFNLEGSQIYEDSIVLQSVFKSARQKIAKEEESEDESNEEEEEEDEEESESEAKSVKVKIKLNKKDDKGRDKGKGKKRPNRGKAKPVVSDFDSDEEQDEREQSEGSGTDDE

| BRM Max % Inhibition (BRM) [%] | IC50 (BRM) [µM] | IC50 (BRG-1) [µM] | Emax (BRG-1) [%] | BRG1 Max % Inhibition (BRG-1) [%] | SMILES |
| --- | --- | --- | --- | --- | --- |
| >90 | 0.1 to 1 | 1 to 5 | > 70 | – | Cn1cc(-c2cccc(-c3csc(NC(=O)CNC(=O)c4cccc(C(C)(C)CO)c4)n3)c2)cn1 [Compound 104] |
| >80 | 1 to 5 | 1 to 5 | > 30 | – | CC(C)(CO)c1cccc(C(=O)NCC(=O)Nc2nc(-c3cccc(C#N)c3)cs2)c1 [Compound 106] |
| >95 | 0.1 to 1 | 1 to 5 | > 80 | – | O=C(CNC(=O)c1ccc2c(c1)C1(CCNC1=O)CC2)Nc1nc(-c2cccc(-c3ccncc3)c2)cs1 (centres unmarked) [Compound 108] |
| >80 | 1 to 5 | 1 to 5 | > 50 | – | C[C@@H](N)C(C)(C)c1cccc(C(=O)NCC(=O)Nc2nc(-c3cccc(-c4ccncc4)c3)cs2)c1 [Compound 109] |
| >95 | < 0.1 | 0.1 to 1 | > 80 | – | Cc1cc(-c2cccc(-c3csc(NC(=O)CNC(=O)c4ccc(C)c(S(=O)(=O)C(C)C)c4)n3)n2)ncn1 [Compound 110, 3-isopropylsulfonyl-4-methyl-N-[2-[[4-[6-(6-methylpyrimidin-4-yl)-2-pyridyl]thiazol-2-yl]amino]-2-oxo-ethyl]benzamide] |
| >90 | 0.1 to 1 | > 5 | > 40 | – | CC(=O)NCc1cccc(-c2cccc(-c3csc(NC(=O)CNC(=O)c4cccc(S(=O)(=O)C(C)C)c4)n3)c2)c1 [Compound 111, N-(2-((4-(3′-(acetamidomethyl)-[1,1′-biphenyl]-3-yl)thiazol-2-yl)amino)-2-oxoethyl)-3-(isopropylsulfonyl) benzamide] |
| >80 | 0.1 to 1 | 0.1 to 1 | > 50 | – | CC(C(F)(F)F)S(=O)(=O)c1cccc(C(=O)NCC(=O)Nc2nc(-c3cccc(-c4ccncc4)c3)cs2)c1 (centres unmarked) [Compound 112] |
| >80 | 0.1 to 1 | 0.1 to 1 | – | >50 | CC(C(F)(F)F)S(=O)(=O)c1cccc(C(=O)NCC(=O)Nc2nc(-c3cccc(-c4ccncc4)c3)cs2)c1 (centres unmarked) [Compound 113, N-(2-oxo-2-((4-(3-(pyridin-4-yl)phenyl)thiazol-2-yl)amino)ethyl)-3-((1,1,1-trifluoropropan-2-yl)sulfonyl)benzamide] |
| >90 | < 0.1 | 0.1 to 1 | > 95 | – | Cc1cc(-c2cccc(-c3csc(NC(=O)CNC(=O)c4cccc(S(=O)(=O)C(C)CN)c4)n3)c2)cc(C)n1 (centres unmarked) [Compound 114, 3-((1-aminopropan-2-yl)sulfonyl)-N-(2-((4-(3-(2,6-dimethylpyridin-4-yl)phenyl)thiazol-2-yl)amino)-2-oxoethyl)benzamide] |
| >95 | < 0.1 | < 0.1 | > 95 | – | C[C@@H](CO)S(=O)(=O)c1cccc(C(=O)NCC(=O)Nc2nc(-c3cccc(-c4ccncc4)c3)cs2)c1 [Compound 115, (S)-3-((1-hydroxypropan-2-yl)sulfonyl)-N-(2-oxo-2-((4-(3-(pyridin-4-yl)phenyl)thiazol-2-yl)amino)ethyl)benzamide] |
| >80 | 0.1 to 1 | 1 to 5 | > 40 | – | C[C@H](CO)S(=O)(=O)c1cccc(C(=O)NCC(=O)Nc2nc(-c3cccc(-c4ccncc4)c3)cs2)c1 [Compound 116, (R)-3-((1-hydroxypropan-2-yl)sulfonyl)-N-(2-oxo-2-((4-(3-(pyridin-4-yl)phenyl)thiazol-2-yl)amino)ethyl)benzamide] |
| >95 | < 0.1 | 0.1 to 1 | > 80 | – | Cc1cc(-c2cccc(-c3csc(NC(=O)CNC(=O)c4cccc(S(=O)(=O)C(C)C)c4)n3)n2)ncn1 [Compound 117, 3-isopropylsulfonyl-N-[2-[[4-[6-(6-methylpyrimidin-4-yl)-2-pyridyl]thiazol-2-yl]amino]-2-oxo-ethyl]benzamide] |
| >70 | 0.1 to 1 | > 5 | < 30 | – | CC(C)S(=O)(=O)c1cccc(C(=O)NCC(=O)Nc2nc(-c3cccc(-c4cccc(C#N)n4)n3)cs2)c1 [Compound 118, N-[2-[[4-[6-(6-cyano-2-pyridyl)-2-pyridyl]thiazol-2-yl]amino]-2-oxo-ethyl]-3-isopropylsulfonyl-benzamide] |
| >95 | < 0.1 | 0.1 to 1 | > 80 | – | COc1nccc(-c2cccc(-c3csc(NC(=O)CNC(=O)c4cccc(S(=O)(=O)C(C)C)c4)n3)n2)n1 [Compound 119, 3-isopropylsulfonyl-N-[2-[[4-[6-(2-methoxypyrimidin-4-yl)-2-pyridyl]thiazol-2-yl]amino]-2-oxo-ethyl]benzamide] |
| >95 | 0.1 to 1 | 1 to 5 | > 80 | – | Cc1nccc(-c2cccc(-c3csc(NC(=O)CNC(=O)c4cccc(S(=O)(=O)C(C)C)c4)n3)n2)n1 [Compound 121] |
| >95 | < 0.1 | < 0.1 | > 95 | – | COc1nc(C)cc(-c2cccc(-c3csc(NC(=O)CNC(=O)c4cccc(S(=O)(=O)C(C)C)c4)n3)c2)n1 [Compound 122, 3-isopropylsulfonyl-N-[2-[[4-[3-(2-methoxy-6-methyl-pyrimidin-4-yl)phenyl]thiazol-2-yl]amino]-2-oxoethyl]benzamide] |
| >95 | < 0.1 | 0.1 to 1 | > 80 | – | COc1cc(-c2cccc(-c3csc(NC(=O)CNC(=O)c4cccc(S(=O)(=O)C(C)C)c4)n3)c2)nc(C)n1 [Compound 123, 3-isopropylsulfonyl-N-[2-[[4-[3-(6-methoxy-2-methyl-pyrimidin-4-yl)phenyl]thiazol-2-yl]amino]-2-oxo-ethyl]benzamide] |
| >90 | 0.1 to 1 | 1 to 5 | > 70 | – | CC(C)S(=O)(=O)c1cccc(C(=O)NCC(=O)Nc2nc(-c3cccc(-c4ccnc(CN)c4)c3)cs2)c1 [Compound 124, N-[2-[[4-[3-[2-(aminomethyl)-4-pyridyl]phenyl]thiazol-2-yl]amino]-2-oxo-ethyl]-3-isopropylsulfonyl-benzamide] |
| >95 | < 0.1 | 0.1 to 1 | > 80 | – | Cc1ccc(C(=O)NCC(=O)Nc2nc(-c3cccc(N4C[C@@H](C)O[C@@H](C)C4)c3)cs2)cc1S(=O)(=O)C(C)C [Compound 125, N-(2-((4-(3-((cis)-2,6-dimethylmorpholino)phenyl)thiazol-2-yl)amino)-2-oxoethyl)-3-(isopropylsulfonyl)-4-methylbenzamide] |
| >80 | 0.1 to 1 | 1 to 5 | > 60 | – | CC(C)S(=O)(=O)c1cccc(C(=O)NCC(=O)Nc2nc(-c3cccc(N4CCOCC4)c3)cs2)c1 [Compound 126, 3-isopropylsulfonyl-N-[2-[[4-(3-morpholinophenyl)thiazol-2-yl]amino]-2-oxoethyl]benzamide] |
| >95 | < 0.1 | 0.1 to 1 | > 90 | – | Cc1cc(-c2cccc(-c3csc(NC(=O)CNC(=O)c4cccc(S(=O)(=O)C(C)C)c4)n3)c2)ncn1 [Compound 127, 3-isopropylsulfonyl-N-[2-[[4-[3-(6-methylpyrimidin-4-yl)phenyl]thiazol-2-yl]amino]-2-oxoethyl] benzamide] |
| >95 | < 0.1 | < 0.1 | > 95 | – | C[C@@H]1CN(c2cccc(-c3csc(NC(=O)CNC(=O)c4ccc5c(c4)S(=O)(=O)CCCC5)n3)c2)C[C@H](C)O1 [Compound 128, N-(2-((4-(3-((cis)-2,6-dimethylmorpholino)phenyl)thiazol-2-yl)amino)-2-oxoethyl)-2,3,4,5-tetrahydrobenzo[b]thiepine-8-carboxamide 1,1-dioxide] |
| >95 | < 0.1 | < 0.1 | > 95 | – | O=C(CNC(=O)c1ccc2c(c1)S(=O)(=O)CCCC2)Nc1nc(-c2cccc(-c3ccncc3)c2)cs1 [Compound 129, 1,1-dioxo-N-[2-oxo-2-[[4-[3-(4-pyridyl)phenyl]thiazol-2-yl]amino]ethyl]-2,3,4,5-tetrahydro-1benzothiepine-8-carboxamide] |
| >60 | 0.1 to 1 | > 5 | < 30 | – | CN1CC=Cc2ccc(C(=O)NCC(=O)Nc3nc(-c4cccc(-c5ccncc5)c4)cs3)cc2S1(=O)=O [Compound 130, 2-methyl-1,1-dioxo-N-[2-oxo-2-[[4-[3-(4-pyridyl)phenyl]thiazol-2-yl]amino]ethyl]-3H-1,2-benzothiazepine-8-carboxamide] |
| >95 | < 0.1 | 0.1 to 1 | > 70 | – | CN1CCCc2ccc(C(=O)NCC(=O)Nc3nc(-c4cccc(-c5ccncc5)c4)cs3)cc2S1(=O)=O [Compound 131, 2-methyl-1,1-dioxo-N-[2-oxo-2-[[4-[3-(4-pyridyl)phenyl]thiazol-2-yl]amino]ethyl]-4,5-dihydro-3H-1,2-benzothiazepine-8-carboxamide] |
| >80 | 0.1 to 1 | 1 to 5 | > 60 | – | C[C@@H]1CN(c2cccc(-c3csc(NC(=O)CNC(=O)c4cccc([C@@]5(O)CCOC5)c4)n3)n2)C[C@H](C)O1 [Compound 134, N-[2-[[4-[6-[(cis)-2,6-dimethylmorpholin-4-yl]-2-pyridyl]thiazol-2-yl]amino]-2-oxo-ethyl]-3-[(3S)-3-hydroxytetrahydrofuran-3-yl]benzamide] |
